Tests used:
[1] = In vitro clearance of tyrosyl-arginine in human whole blood
Description: Supplementation of an intravenous nutrition solution with the dipeptide tyrosyl-arginine facilitates the infusion of the poorly soluble amino acid tyrosine. We have initiated the first investigations into the metabolism of exogenous tyrosyl-arginine (TryArg). In vitro clearance of tyrosyl-arginine, and the constituent amino acids arginine and tyrosine was assessed in blood from two healthy normal volunteers on five occasions. Whole blood was incubated with tyrosyl-arginine (initially 547 nmol/ml) at 37°°C. for 40 minutes. Throughout this period samples were taken to determine concentration of the dipeptide and individual amino acids.

[2] = In vivo clearance of tyrosyl-arginine after intravenous bolus in rats; parameters: species or system Sprague Dawley rats; settings: rat
Description: In vivo clearance was assessed in five large (370 g) mature (122 days old) Sprague Dawley rats. The animals were anaesthetised with sodium pentabarbitone and remained anaesthetised during the entire procedure. A large bolus of tyrosyl-arginine (82.1 2.8 μg/g rat, Mean SD) was injected intravenously into a central vein and rapid blood samples (n=11) (total volume=2.0 ml) were obtained through a central venous catheter over 20 minutes. We observed that tyrosyl-arginine was cleared rapidly by rats with an approximate half life of 30 seconds. There was a large and rapid rise in Arg concentration reaching a maximum after 2.5 min and falling to baseline levels after 20 minutes.

SMILES | time by which degradation was complete ([1]; human whole blood, 37°C) | half-life at 547 nmol/ml ([1]; human, blood) | concentration in whole blood (mean) ([1]; time 0 min, human whole blood incubated with tyrosyl-arginine (initially 547 nmol/ml) at 37°C) | concentration in whole blood (mean) ([1]; time 0.5 min, human whole blood incubated with tyrosyl-arginine at 37°C) | concentration in whole blood (mean) ([1]; time 1.0 min, human whole blood incubated with tyrosyl-arginine at 37°C) | concentration in whole blood (mean) ([1]; time 2.0 min, human whole blood incubated with tyrosyl-arginine at 37°C) | concentration in whole blood (mean) ([1]; time 5.0 min, human whole blood incubated with tyrosyl-arginine at 37°C) | concentration in whole blood (mean) ([1]; time 10.0 min, human whole blood incubated with tyrosyl-arginine at 37°C) | concentration in whole blood (mean) ([1]; time 20.0 min, human whole blood incubated with tyrosyl-arginine at 37°C) | concentration in whole blood (mean) ([1]; time 40.0 min, human whole blood incubated with tyrosyl-arginine at 37°C) | concentration in whole blood (mean) ([1]; time 60.0 min, human whole blood incubated with tyrosyl-arginine at 37°C) | concentration in whole blood (mean) ([1]; time 120.0 min, human whole blood incubated with tyrosyl-arginine at 37°C) | half-life ([2]; Sprague Dawley, 82.1 μg/g rat, anaesthetised rats, intravenous bolus of tyrosyl-arginine into a central vein, read-out: approximate half life (in vivo clearance) (converted)) | time over which the concentration, after its rise, fell to baseline [1] | time of fall to baseline levels ([2]; iv) | time to maximum concentration ([2]; iv)
N=C(N)NCCC[C@H](NC(=O)[C@@H](N)Cc1ccc(O)cc1)C(=O)O [Tyr--Arg, tyrosyl-arginine] | ≤ 2 h | 4.2 min | 547 µM | 389.85 µM | 338.65 µM | 278.94 µM | 245.52 µM | 220.90 µM | 149.77 µM | 547.0 µM | 55.57 µM | 0 µM | ~0.5 min |  |  | 
N=C(N)NCCC[C@H](N)C(=O)O [Arg, arginine] |  |  |  |  |  |  |  |  |  |  |  |  |  | 2 h | 20 min | 2.5 min
N[C@@H](Cc1ccc(O)cc1)C(=O)O [Tyr, tyrosine] |  |  |  |  |  |  |  |  |  |  |  |  |  | 2 h |  | 
